Assays:
PIK3CA (human) = PIK3CA (human) (UniProt P42336); experiment: Inhibition of PIK3CA Kinase Activity
[1] = molecular target: PIK3CA (human), P42336 [Antiproliferation of PI3K Mutated BT20 Cells]; experiment: Cell-Based Assay
Chain of PIK3CA (human), P42336 [Antiproliferation of PI3K Mutated BT20 Cells] (P42336 whole entry, looked up, change not shown): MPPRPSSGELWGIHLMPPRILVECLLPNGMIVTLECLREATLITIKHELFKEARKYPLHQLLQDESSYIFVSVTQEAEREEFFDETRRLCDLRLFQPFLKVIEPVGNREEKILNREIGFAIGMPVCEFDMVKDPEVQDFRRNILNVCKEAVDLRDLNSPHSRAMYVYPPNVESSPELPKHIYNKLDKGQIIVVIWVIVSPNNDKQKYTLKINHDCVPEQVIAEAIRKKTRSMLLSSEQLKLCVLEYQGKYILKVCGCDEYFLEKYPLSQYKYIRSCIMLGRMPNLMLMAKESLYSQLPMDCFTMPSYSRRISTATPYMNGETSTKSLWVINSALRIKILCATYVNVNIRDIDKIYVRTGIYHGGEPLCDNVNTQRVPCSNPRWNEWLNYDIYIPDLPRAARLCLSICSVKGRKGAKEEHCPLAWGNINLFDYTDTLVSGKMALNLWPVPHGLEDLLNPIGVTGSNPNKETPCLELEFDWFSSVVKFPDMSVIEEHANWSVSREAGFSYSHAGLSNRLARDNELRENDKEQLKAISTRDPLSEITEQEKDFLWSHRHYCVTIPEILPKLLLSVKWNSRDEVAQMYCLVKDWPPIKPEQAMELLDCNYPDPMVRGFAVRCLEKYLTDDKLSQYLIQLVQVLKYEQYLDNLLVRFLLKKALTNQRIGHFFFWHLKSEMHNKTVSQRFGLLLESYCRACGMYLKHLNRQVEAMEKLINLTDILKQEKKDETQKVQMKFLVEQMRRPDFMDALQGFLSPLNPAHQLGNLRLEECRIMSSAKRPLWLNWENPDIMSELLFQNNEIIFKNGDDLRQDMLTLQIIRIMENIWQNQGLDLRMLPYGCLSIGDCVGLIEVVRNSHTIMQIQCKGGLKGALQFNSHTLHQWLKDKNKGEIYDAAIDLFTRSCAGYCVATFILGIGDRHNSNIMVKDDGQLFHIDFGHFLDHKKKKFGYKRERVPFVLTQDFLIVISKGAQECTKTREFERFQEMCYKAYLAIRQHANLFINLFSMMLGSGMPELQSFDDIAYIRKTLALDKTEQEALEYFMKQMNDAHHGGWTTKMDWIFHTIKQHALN

Chain of PIK3CA (human) (P42336 whole entry, looked up): as the sequence (P42336 whole entry, looked up, change not shown) above

Compound	IC50 (PIK3CA (human))	IC50 [1]
Cc1nc(N)nc2c1cc(-c1cn[nH]c1)c(=O)n2[C@H]1CC[C@H](OCCO)CC1	7.58 nM	33.5 nM
COc1ncc(-c2cc3c(C)nc(N)nc3n([C@H]3C[C@H](OCCO)C3)c2=O)cn1	6.65 nM	93.5 nM
Cc1nc(N)nc2c1cc(-c1cn[nH]c1)c(=O)n2C1CCC(=O)CC1	12 nM	4.66 nM
Cc1nc(N)nc2c1cc(Br)c(=O)n2[C@H]1CC[C@H](O)CC1	44 nM	305 nM
CCNc1nc(C)c2cc(CCC(=O)Nc3ncc[nH]3)c(=O)n(C3CCCC3)c2n1	310 nM	5710 nM
Cc1nc(N)nc2c1cc(-c1cn[nH]c1)c(=O)n2[C@H]1CC[C@@H](OCCO)CC1	29.7 nM	9.1 nM
CO[C@H]1CC[C@H](n2c(=O)c(Br)cc3c(C)nc(N)nc32)CC1	31 nM	64 nM
CNc1nc(C)c2cc(-c3cnc(N)c(OC[C@H](C)N)n3)c(=O)n(C3CCCC3)c2n1	400 nM	2330 nM
COc1ccc(-c2cc3c(C)nc(N)nc3n([C@@H]3CC[C@H](O)C3)c2=O)cn1	11 nM	82.9 nM
Cc1nc(N)nc2c1cc(-c1cn[nH]c1)c(=O)n2N1CCCC1	28 nM	–
COc1ccc(-c2cc3c(C)nc(N)nc3n([C@@H]3CC[C@@H](O)C3)c2=O)cn1	4.6 nM	87.6 nM
CNc1nc(C)c2cc(-c3c[nH]c(C)n3)c(=O)n(C3CCCC3)c2n1	67 nM	181 nM
COc1ncc(-c2cc3c(C)nc(N)nc3n(C3CCOCC3)c2=O)cn1	45 nM	26.7 nM
COc1ncc(-c2cc3c(C)nc(N)nc3n([C@H]3CC[C@H](OCCO)CC3)c2=O)cc1F	1.44 nM	5.3 nM
COc1ccc(-c2cc3c(C)nc(N)nc3n([C@H]3CC[C@H](OCC(N)=O)CC3)c2=O)cn1	–	19.3 nM
COc1ccc(-c2cc3c(C)nc(NCC(C)(C)O)nc3n(C3CCCC3)c2=O)cn1	830 nM	5750 nM
COc1ccc(-c2cc3c(C)nc(N)nc3n(N3CCCC3)c2=O)cn1	23 nM	–
Cc1nc(N)nc2c1cc(-c1cn[nH]c1)c(=O)n2C1CCOC1 (stereo not given)	20 nM	25.8 nM
Cc1nc(N)nc2c1cc(Br)c(=O)n2C1CCC(=O)CC1	110 nM	211 nM
COc1ccc(-c2cc3c(C)nc(N)nc3n(C3CCNC3)c2=O)cn1 (stereo not given)	200 nM	671 nM
COc1cccc(-c2cc3c(C)nc(N)nc3n(C3CCCC3)c2=O)c1	168 nM	622 nM
COc1ccc(-c2cc3c(C)nc(N)nc3n(CCN)c2=O)cn1	340 nM	4530 nM

Compound	IC50 (PIK3CA (human))	IC50 [1]
Cc1nc(N)nc2c1cc(Br)c(=O)n2CC1CCOC1 (stereo not given)	94 nM	1020 nM
Cc1nc(N)nc2c1cc(-c1cnc(N)cn1)c(=O)n2C1CCCC1	15 nM	17.9 nM
Cc1nc(N)nc2c1cc(-c1cnc3[nH]ccc3c1)c(=O)n2C1CC1	17 nM	138 nM
Cc1nc(N)nc2c1cc(-c1cnc3[nH]ccc3c1)c(=O)n2CC1CCOC1 (stereo not given)	2.8 nM	57.8 nM
COc1cc(-c2cc3c(C)nc(N)nc3n(C3CCCC3)c2=O)ccc1O	0.989 nM	19 nM
COc1ccc(-c2cc3c(C)nc(N)nc3n(CC(C)(C)F)c2=O)cn1	30 nM	437 nM
Cc1nc(N)nc2c1cc(-c1cnc3[nH]ccc3c1)c(=O)n2[C@@H]1CC[C@H](O)C1	1.2 nM	20.4 nM
COc1ccc(-c2cc3c(C)nc(N)nc3n(C3CCCC3)c2=O)cc1F	15 nM	45.9 nM
CNc1nc(C)c2cc(-c3ccc(O)c(OC)c3)c(=O)n(C3CCCC3)c2n1	1.57 nM	3.82 nM
Cc1nc(N)nc2c1cc(-c1cnn(C(=O)OC(C)(C)C)c1)c(=O)n2N1CCCC1	93 nM	5.08 nM
Cc1nc(N)nc2c1cc(-c1cn[nH]c1)c(=O)n2C1CCOCC1	18.5 nM	19.9 nM
Cc1nc(N)nc2c1cc(-c1ccncc1)c(=O)n2Cc1ccc(Cl)cc1	4900 nM	–
CNc1nc(C)c2cc(-c3cnn(CC(F)F)c3)c(=O)n(C3CCCC3)c2n1	46 nM	10000 nM
COc1ccc(-c2cc3c(C)nc(N)nc3n(C3CCOCC3)c2=O)cn1	–	71.4 nM
Cc1nc(N)nc2c1cc(C(=O)Nc1ccn[nH]1)c(=O)n2C(C)C	2.9 nM	30.5 nM
CNc1nc(C)c2cc(C(N)=O)c(=O)n(C3CCCC3)c2n1	68 nM	650 nM
CCNc1nc(C)c2cc(CCC(=O)N(CC)CC)c(=O)n(C3CCCC3)c2n1	–	10000 nM
Cc1nc(N)nc2c1cc(-c1cnc3[nH]ccc3c1)c(=O)n2C1CCCC1	0.48 nM	2.76 nM
C=CCn1c(=O)c(-c2ccc(OC)nc2)cc2c(C)nc(NC)nc21	17 nM	106 nM
CNc1nc(C)c2cc(-c3cnc4[nH]ccc4c3)c(=O)n(C3CCCC3)c2n1	0.75 nM	3.82 nM
CNc1nc(C)c2cc(C#N)c(=O)n(C3CCCC3)c2n1	60 nM	603 nM
Cc1nc(N)nc2c1cc(-c1cnc(O)nc1)c(=O)n2C1CCOCC1	810 nM	10000 nM

Compound	IC50 (PIK3CA (human))	IC50 [1]
CNc1nc(C)c2cc(-c3cn[nH]c3)c(=O)n(CC3CCOC3)c2n1 (stereo not given)	6 nM	22.1 nM
Cc1nc(N)nc2c1cc(-c1cnc3ccccc3c1)c(=O)n2CC(C)(C)O	–	322 nM
Cc1nc(N)nc2c1cc(-c1ccc3cc[nH]c3n1)c(=O)n2[C@H]1CC[C@@H](O)CC1	1.6 nM	25.4 nM
COc1ncc(-c2cc3c(C)nc(N)nc3n([C@H]3CC[C@H](OCC(N)=O)CC3)c2=O)cn1	–	51.9 nM
COc1ncc(-c2cc3c(C)nc(N)nc3n(C3CCOCC3)c2=O)cc1F	1.43 nM	–
CCn1nccc1NC(=O)c1cc2c(C)nc(N)nc2n(C(C)C)c1=O	3.9 nM	–
Cc1nc(NCC(C)(C)O)nc2c1cc(-c1cccc(O)c1)c(=O)n2C1CCCC1	–	1180 nM
CCNc1nc(C)c2cc(CCC(=O)Nc3ccccn3)c(=O)n(C3CCCC3)c2n1	–	10000 nM
Cc1nc(N)nc2c1cc(-c1cn[nH]c1)c(=O)n2C1CCCC1	–	3.49 nM
COc1ccc(-c2cc3c(C)nc(N)nc3n(C3CC3)c2=O)cn1	56 nM	–
COc1ccc(-c2cc3c(C)nc(N)nc3n([C@H]3CC[C@@H](O)CC3)c2=O)cn1	–	19 nM
CCNc1nc(C)c2cc(CCC(=O)N(C)C)c(=O)n(C3CCCC3)c2n1	–	10000 nM
COc1ncc(-c2cc3c(C)nc(N)nc3n([C@H]3CC[C@@H](OCC(N)=O)CC3)c2=O)cn1	–	82.9 nM
COc1ccc(-c2cc3c(C)nc(N)nc3n([C@H]3CC[C@H](O)CC3)c2=O)cn1	–	3.6 nM
Cc1nc(N)nc2c1cc(-c1cn[nH]c1)c(=O)n2C1CC1	78 nM	–
CCn1cc(CNC(=O)c2cc3c(C)nc(NC)nc3n(C3CCCC3)c2=O)cn1	1200 nM	–
COc1ccc(-c2cc3c(C)nc(N)nc3n([C@H]3CC[C@@H](OCC(N)=O)CC3)c2=O)cn1	–	20.5 nM
COc1ccc(Cn2c(=O)c(-c3ccccc3)cc3c(C)nc(N)nc32)cc1	310 nM	–
Cc1nc(N)nc2c1cc(-c1ccccc1)c(=O)n2Cc1ccc(Cl)cc1	1400 nM	–
CNc1nc(C)c2cc(-c3cc(CN)ccc3F)c(=O)n(C3CCCC3)c2n1	–	10000 nM
COc1ncc(-c2cc3c(C)nc(N)nc3n([C@H]3CC[C@@H](OCCO)CC3)c2=O)cc1F	2.6 nM	–

From the Kinase Knowledgebase extract (Sharma et al. 2016)
